According to patent US6737383B1, “Herbicidal oxadiazolidines” (priority 1999, dated 2004):

What was measured:
bermuda-grass = assay: Test D bermudagrass; assay type: in vivo, Cynodon dactylon; conditions: Postemergence, 0 to 100 scale
wild poinsettia = assay: Test C postemergence wild poinsettia; assay type: in vivo, Euphorbia heterophylla; conditions: 0 to 100 scale, 0 no effect, 100 complete control
Summary of the method: (§1)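 Greenhouse postemergence test: compound applied in solvent/surfactant formulation to established plants; visual scoring 0–100 against untreated controls after roughly two to three weeks (14–21 days).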

soybean = assay: Test C postemergence soybean; assay type: in vivo, Glycine max; conditions: 0 to 100 scale, 0 no effect, 100 complete control
Summary of the method: as §1

annual bluegrass = assay: Test E annual bluegrass; assay type: in vivo, Poa annua; conditions: Preemergence
chickweed [1] = assay: Test E chickweed; assay type: in vivo, Stellaria media; conditions: Preemergence
pitted morningglory = assay: Test D pitted morningglory; assay type: in vivo, Ipomoea lacunosa; conditions: Postemergence, 0 to 100 scale
chickweed [2] = assay: Test E chickweed; assay type: in vivo, Stellaria media; conditions: Postemergence; for Plant response rating, Chickweed: 0 to 100 scale
Summary of the method: (§2)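 Postemergence: spray at 1–4 leaf stage, soil 60:40 sandy loam:potting mix; solvent + surfactant formulation; greenhouse 21–28 d; visual injury vs untreated controls.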

barnyardgrass = assay: Test C postemergence barnyardgrass; assay type: in vivo, Echinochloa crus-galli; conditions: 0 to 100 scale, 0 no effect, 100 complete control
Summary of the method: as §1

lambsquarters = assay: Test C postemergence lambsquarters; assay type: in vivo, Chenopodium album; conditions: 0 to 100 scale, 0 no effect, 100 complete control
Summary of the method: as §1

field bindweed = assay: Test C postemergence field bindweed; assay type: in vivo, Convolvulus arvensis; conditions: 0 to 100 scale, 0 no effect, 100 complete control
Summary of the method: as §1

Italian ryegrass = assay: Test E Italian ryegrass; assay type: in vivo, Lolium multiflorum; conditions: Postemergence; for Plant response rating, I. Ryegrass: 0 to 100 scale
Summary of the method: as §2

ivyleaf speedwell = assay: Test E postemergence ivyleaf speedwell; assay type: in vivo, Veronica hederaefolia; conditions: for Plant response rating, Veronica hedera: 0 to 100 scale
Summary of the method: as §2

Green foxtail = assay: Test D green foxtail; assay type: in vivo; conditions: Preemergence, 0 to 100 scale
Summary of the method: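 Weed seeds planted in sandy loam; species kept apart in individual pots or compartments. Preemergence tests: treatment to soil surface within one day. Greenhouse growth, then visual injury scoring at 14–21 days (0–100).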

surinam grass = assay: Test C postemergence surinam grass; assay type: in vivo, Brachiaria decumbens; conditions: 0 to 100 scale, 0 no effect, 100 complete control
Summary of the method: as §1

[3] = Rate 64 g/ha, 0 no injury, 100 complete control
[4] = Rate 125 g/ha, 0 no injury, 100 complete control
[5] = Rate 125 g/ha, 0 to 100 scale (0 no effect, 100 complete control)
[6] = Rate 500 g/ha, 0 to 100 scale where 0 is no effect and 100 is complete control
[7] = Rate 500 g/ha, 0 no effect, 100 complete control
[8] = Rate 250 g/ha, 0 to 100 scale where 0 is no effect and 100 is complete control

C=CCn1c(=O)on(C(=O)N(c2ccc(F)cc2)C(C)C)c1=O [Compound 146]
Plant response rating, Bermudagrass (bermuda-grass; [3]): 0 | Plant response rating, Bermudagrass (bermuda-grass; [4]): 0 | Plant response rating, Bermudagrass (bermuda-grass; Rate 250 g/ha): 0 | Plant response rating, Bermudagrass (bermuda-grass; Rate 500 g/ha): 35 | Plant response rating Wild poinsettia (wild poinsettia; Rate 140 g/ha): 0 | Plant response rating Wild poinsettia (wild poinsettia; Rate 280 g/ha): 40 | Plant response rating Wild poinsettia (wild poinsettia; Rate 560 g/ha): 50 | Plant response rating Wild poinsettia (wild poinsettia; Rate 1120 g/ha): 70 | Plant response rating, Soybean (soybean; Rate 140 g/ha): 40 | Plant response rating, Soybean (soybean; Rate 280 g/ha): 50 | Plant response rating, Soybean (soybean; Rate 560 g/ha): 60 | Plant response rating, Soybean (soybean; Rate 1120 g/ha): 85 | Plant response rating, Annual bluegras (annual bluegrass; [5]): 60 | Annual bluegras plant response rating (0 to 100 scale) (annual bluegrass; Rate 250 g/ha): 80 | Plant response rating, Annual bluegras (annual bluegrass; [6]): 90 | Plant response rating, Chickweed (chickweed [1]; [5]): 30 | Chickweed plant response rating (0 to 100 scale) (chickweed [1]; Rate 250 g/ha): 80 | Plant response rating, Chickweed (chickweed [1]; [6]): 70 | Plant response rating, P. morninglory (pitted morningglory; [3]): 30 | Plant response rating, P. morninglory (pitted morningglory; [4]): 40 | Plant response rating, P. morninglory (pitted morningglory; Rate 250 g/ha): 50 | Plant response rating, P. morninglory (pitted morningglory; Rate 500 g/ha): 65 | Plant response rating, Chickweed (chickweed [2]; Rate 62 g/ha): 30 | Plant response rating, Chickweed (chickweed [2]; Rate 125 g/ha): 0 | Plant response rating, Chickweed (chickweed [2]; [7]): 30 | Chickweed plant response rating (chickweed [2]; [8]): 0 | Plant response rating, Barnyardgrass (barnyardgrass; Rate 140 g/ha): 60 | Plant response rating, Barnyardgrass (barnyardgrass; Rate 280 g/ha): 80 | Plant response rating, Barnyardgrass (barnyardgrass; Rate 560 g/ha): 85 | Plant response rating, Barnyardgrass (barnyardgrass; Rate 1120 g/ha): 95 | Plant response rating Lambsquarters (lambsquarters; Rate 140 g/ha): 0 | Plant response rating Lambsquarters (lambsquarters; Rate 280 g/ha): 5 | Plant response rating Lambsquarters (lambsquarters; Rate 560 g/ha): 10 | Plant response rating Lambsquarters (lambsquarters; Rate 1120 g/ha): 50 | Plant response rating Field bindweed (field bindweed; Rate 140 g/ha): 0 | Plant response rating Field bindweed (field bindweed; Rate 280 g/ha): 0 | Plant response rating Field bindweed (field bindweed; Rate 560 g/ha): 0 | Plant response rating Field bindweed (field bindweed; Rate 1120 g/ha): 0 | Plant response rating, I. Ryegrass (Italian ryegrass; Rate 62 g/ha): 50 | Plant response rating, I. Ryegrass (Italian ryegrass; Rate 125 g/ha): 10 | Plant response rating, I. Ryegrass (Italian ryegrass; [7]): 50 | I. Ryegrass plant response rating (Italian ryegrass; [8]): 10 | Plant response rating, Veronica hedera (ivyleaf speedwell; Rate 125 g/ha): 60 | Veronica hedera plant response rating (ivyleaf speedwell; [8]): 40 | Plant response rating, Veronica hedera (ivyleaf speedwell; [7]): 70 | Plant response rating, Green foxtail (Green foxtail; Rate 250 g/ha): 100 | Plant response rating, Green foxtail (Green foxtail; Rate 500 g/ha): 100 | Plant response rating Surinam grass (surinam grass; Rate 140 g/ha): 0 | Plant response rating Surinam grass (surinam grass; Rate 280 g/ha): 5 | Plant response rating Surinam grass (surinam grass; Rate 560 g/ha): 50 | Plant response rating Surinam grass (surinam grass; Rate 1120 g/ha): 95
